Assay results taken from patent US20250145585A1, “HETEROCYCLIC INHIBITORS OF IGF-1R FOR TREATMENT OF DISEASE” (HORIZON THERAPEUTICS IRELAND DAC, priority 2023, published 2025).

Target: T1, IGF-1R (Homo sapiens, UniProt P08069)
T1 construct: expressed in transfected cells
Assay: Example B-2: IGF-1R Assay (PathHunter cell lines, EC80 agonist challenge, chemiluminescent detection)
Format: cell-based
Settings: PathHunter cells, compound 60 minutes at 37° C., EC80 agonist 3 hours; read-out: IC50, Biological Activity against IGF-1R (Table B2)
Procedure, shortened: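 PathHunter cells were pre-incubated with compound for 60 min at 37° C (1% vehicle), then challenged with EC80 agonist for 3 h at room temperature. Chemiluminescent detection after 1 h gave % inhibition relative to EC80 and vehicle controls, from which IC50 was derived.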

T1 sequence (P08069 31-1367): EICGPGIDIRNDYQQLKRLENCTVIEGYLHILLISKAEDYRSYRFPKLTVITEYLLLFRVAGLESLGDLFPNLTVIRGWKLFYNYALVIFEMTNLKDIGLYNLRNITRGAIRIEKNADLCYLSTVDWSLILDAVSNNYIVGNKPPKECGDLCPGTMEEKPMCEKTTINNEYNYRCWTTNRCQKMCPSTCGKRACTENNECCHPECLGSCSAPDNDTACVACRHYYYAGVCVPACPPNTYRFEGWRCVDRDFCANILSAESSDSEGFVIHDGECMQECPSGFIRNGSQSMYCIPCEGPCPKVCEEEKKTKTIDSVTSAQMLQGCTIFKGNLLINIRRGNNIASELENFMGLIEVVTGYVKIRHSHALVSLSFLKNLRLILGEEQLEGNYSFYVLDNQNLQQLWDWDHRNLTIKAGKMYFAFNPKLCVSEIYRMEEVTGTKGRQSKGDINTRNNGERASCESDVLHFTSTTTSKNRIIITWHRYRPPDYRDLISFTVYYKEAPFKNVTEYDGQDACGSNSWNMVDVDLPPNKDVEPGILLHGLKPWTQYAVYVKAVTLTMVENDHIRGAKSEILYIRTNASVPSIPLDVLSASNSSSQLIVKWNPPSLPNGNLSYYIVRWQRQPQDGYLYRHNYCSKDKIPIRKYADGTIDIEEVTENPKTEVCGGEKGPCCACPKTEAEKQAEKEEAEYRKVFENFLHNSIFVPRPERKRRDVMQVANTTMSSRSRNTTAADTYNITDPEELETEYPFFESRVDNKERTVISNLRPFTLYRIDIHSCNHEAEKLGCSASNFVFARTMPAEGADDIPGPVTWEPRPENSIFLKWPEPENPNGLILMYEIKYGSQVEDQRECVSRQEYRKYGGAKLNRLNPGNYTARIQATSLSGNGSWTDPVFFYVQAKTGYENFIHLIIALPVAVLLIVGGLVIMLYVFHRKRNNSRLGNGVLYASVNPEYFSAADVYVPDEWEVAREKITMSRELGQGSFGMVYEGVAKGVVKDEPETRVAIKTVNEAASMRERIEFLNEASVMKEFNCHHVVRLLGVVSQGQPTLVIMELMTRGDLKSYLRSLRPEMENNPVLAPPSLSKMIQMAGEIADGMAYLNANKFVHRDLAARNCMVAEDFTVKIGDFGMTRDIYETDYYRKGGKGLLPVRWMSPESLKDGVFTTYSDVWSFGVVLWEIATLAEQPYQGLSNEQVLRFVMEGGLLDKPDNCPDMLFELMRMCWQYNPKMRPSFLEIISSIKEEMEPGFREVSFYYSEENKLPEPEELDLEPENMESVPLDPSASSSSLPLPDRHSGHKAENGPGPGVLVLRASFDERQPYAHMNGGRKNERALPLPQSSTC

| SMILES | IC50 |
| --- | --- |
| CC(C)Nc1cc(CN2C(=O)N(c3ccc4c(c3)N(S(C)(=O)=O)CC4(C)C)C(=O)C2(C)C)ccn1 [Compound 194, 3-(3,3-dimethyl-1-(methylsulfonyl)indolin-6-yl)-1-((2-(isopropylamino)pyridin-4-yl)methyl)-5,5-dimethylimidazolidine-2,4-dione] | ≤ 500 nM |
| CC(C)Nc1cc(CN2C(=O)N(c3ccc4c(c3)N(S(C)(=O)=O)CC43CCC3)C(=O)C2(C)C)ccn1 [Compound 195, 1-((2-(isopropylamino)pyridin-4-yl)methyl)-5,5-dimethyl-3-(1′-(methylsulfonyl)spiro[cyclobutane-1,3′-indolin]-6′-yl)imidazolidine-2,4-dione] | ≤ 500 nM |
| CC1(C)CN(C(=O)C2CC2)c2cc(N3C(=O)N(Cc4ccnc(N[C@H]5CCOC5)c4)C(C)(C)C3=O)ccc21 [Compound 196, (S)-3-(1-(cyclopropanecarbonyl)-3,3-dimethylindolin-6-yl)-5,5-dimethyl-1-((2-((tetrahydrofuran-3-yl)amino)pyridin-4-yl)methyl)imidazolidine-2,4-dione] | ≤ 500 nM |
| CC(C)Nc1cc(CN2C(=O)N(c3cnc4c(c3)N(C)CC4(C)C)C(=O)C2(C)C)ccn1 [Compound 197, 1-((2-(isopropylamino)pyridin-4-yl)methyl)-5,5-dimethyl-3-(1,3,3-trimethyl-2,3-dihydro-1H-pyrrolo[3,2-b]pyridin-6-yl)imidazolidine-2,4-dione] | 2000 to 10000 nM |
| COC[C@@H](C)Nc1cc(CN2C(=O)N(c3ccc4c(c3)OCC4(C)C)C(=O)C2(C)C)ccn1 [Compound 198, (R)-3-(3,3-dimethyl-2,3-dihydrobenzofuran-6-yl)-1-((2-((1-methoxypropan-2-yl)amino)pyridin-4-yl)methyl)-5,5-dimethylimidazolidine-2,4-dione] | ≤ 500 nM |
| CC1(C)COc2cc(N3C(=O)N(Cc4ccnc(NC5CCOCC5)c4)C(C)(C)C3=O)ccc21 [Compound 199, 3-(3,3-dimethyl-2,3-dihydrobenzofuran-6-yl)-5,5-dimethyl-1-((2-((tetrahydro-2H-pyran-4-yl)amino)pyridin-4-yl)methyl)imidazolidine-2,4-dione] | ≤ 500 nM |
| CC(C)Nc1cc(CN2C(=O)N(c3ccc4c(c3)N(S(C)(=O)=O)CC43CC3)C(=O)C2(C)C)ccn1 [Compound 200, 1-((2-(isopropylamino)pyridin-4-yl)methyl)-5,5-dimethyl-3-(1′-(methylsulfonyl)spiro[cyclopropane-1,3′-indolin]-6′-yl)imidazolidine-2,4-dione] | ≤ 500 nM |
| CC1(C)CN(S(C)(=O)=O)c2cc(N3C(=O)N(Cc4ccnc(N[C@H]5CCOC5)c4)C(C)(C)C3=O)ccc21 [Compound 201, (S)-3-(3,3-dimethyl-1-(methylsulfonyl)indolin-6-yl)-5,5-dimethyl-1-((2-((tetrahydrofuran-3-yl)amino)pyridin-4-yl)methyl)imidazolidine-2,4-dione] | ≤ 500 nM |
| COC[C@@H](C)Nc1cc(CN2C(=O)N(c3ccc4c(c3)N(C)CC4(C)C)C(=O)C2(C)C)ccn1 [Compound 202, (R)-1-((2-((1-methoxypropan-2-yl)amino)pyridin-4-yl)methyl)-5,5-dimethyl-3-(1,3,3-trimethylindolin-6-yl)imidazolidine-2,4-dione] | ≤ 500 nM |
| COC[C@@H](C)Nc1cc(CN2C(=O)N(c3ccc4c(c3)N(S(C)(=O)=O)CC4(C)C)C(=O)C2(C)C)ccn1 [Compound 203, (R)-3-(3,3-dimethyl-1-(methylsulfonyl)indolin-6-yl)-1-((2-((1-methoxypropan-2-yl)amino)pyridin-4-yl)methyl)-5,5-dimethylimidazolidine-2,4-dione] | ≤ 500 nM |
| CC1(C)C(=O)N(c2ccc3c(c2)N(S(C)(=O)=O)CC32CCC2)C(=O)N1Cc1ccnc(N[C@H]2CCOC2)c1 [Compound 204, (S)-5,5-dimethyl-3-(1′-(methylsulfonyl)spiro[cyclobutane-1,3′-indolin]-6′-yl)-1-((2-((tetrahydrofuran-3-yl)amino)pyridin-4-yl)methyl)imidazolidine-2,4-dione] | ≤ 500 nM |
